Assay results from PubChem BioAssay AID1963429 (Molecular Pharmacology Branch, DTP, NCI, 2024).
Values joined by “and” are separate entries in the source; they are usually repeats but may differ in a detail not shown here. Identical values can stand only once. One block for each compound: values may come before it.

Tested on: 126254-015-R-J1-PDC complex spheroid growth, % test/control
Assay: Anticancer human tumor 126254-015-R-J1-PDC patient-derived soft tissue sarcoma cell line growth inhibition [Asc]
Conditions: for viability, T/C: stronger effect = lower value
Method in brief: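 Tumor cells were grown as complex spheroids with human endothelial cells (HUVEC) and human mesenchymal stem cells as stroma. Agents were tested alone and in combination, in half-log steps down from the clinical Cmax, or from 10 microM where Cmax was unknown.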

[1] = curve of first compound, second compound 0.1 µM
[2] = curve of first compound, second compound 0.316 µM
[3] = curve of first compound, second compound 1 µM
[4] = second compound 0.1 µM, first compound 0.0316 µM
[5] = second compound 0.1 µM, first compound 0.1 µM
[6] = second compound 0.1 µM, first compound 0.316 µM
[7] = second compound 0.1 µM, first compound 1 µM
[8] = second compound 0.316 µM, first compound 0.0316 µM
[9] = second compound 0.316 µM, first compound 0.1 µM
[10] = second compound 0.316 µM, first compound 0.316 µM
[11] = second compound 0.316 µM, first compound 1 µM
[12] = second compound 1 µM, first compound 0.0316 µM
[13] = second compound 1 µM, first compound 0.1 µM
[14] = second compound 1 µM, first compound 0.316 µM
[15] = second compound 1 µM, first compound 1 µM
[16] = curve of first compound, second compound 0.01 µM
[17] = curve of first compound, second compound 0.0316 µM
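Further: spheroids exposed to compound for seven days.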
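Wherever viability, T/C is given: 100% = DMSO vehicle control wells.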

SMILES: O=C(c1ccc(F)c(F)c1Nc1ccc(I)cc1F)N1CC(O)([C@@H]2CCCCN2)C1 + Cc1c(S(C)(=O)=O)c(-c2cc(F)cc(N3CCN(c4ccc(NS(=O)(=O)c5ccc(NC(CCN6CCC(C(=O)OCCCP(=O)(O)O)CC6)CSc6ccccc6)c(S(=O)(=O)C(F)(F)F)c5)cc4)CC3)c2)c(-c2ccc(Cl)cc2)n1C(C)C
- IC50 [1]: 0.644 µM
- IC50 [2]: 0.502 µM
- IC50 [3]: 0.494 µM
- IC50 (curve of first compound, second compound 3.16 µM): 0.42 µM
- IC50 (curve of first compound, second compound 10 µM): 0.321 µM
- viability, T/C (second compound 0.1 µM, first compound 0.00316 µM): 87.3%
- viability, T/C (second compound 0.1 µM, first compound 0.01 µM): 106%
- viability, T/C [4]: 106%
- viability, T/C [5]: 87.7%
- viability, T/C [6]: 70.7%
- viability, T/C [7]: 37.6%
- viability, T/C (second compound 0.316 µM, first compound 0.00316 µM): 88.5%
- viability, T/C (second compound 0.316 µM, first compound 0.01 µM): 87.7%
- viability, T/C [8]: 84.7%
- viability, T/C [9]: 83.4%
- viability, T/C [10]: 60.9%
- viability, T/C [11]: 33.6%
- viability, T/C (second compound 1 µM, first compound 0.00316 µM): 89.2%
- viability, T/C (second compound 1 µM, first compound 0.01 µM): 93.7%
- viability, T/C [12]: 83.9%
- viability, T/C [13]: 79.3%
- viability, T/C [14]: 65.5%
- viability, T/C [15]: 26.9%
- viability, T/C (second compound 3.16 µM, first compound 0.00316 µM): 88.1%
- viability, T/C (second compound 3.16 µM, first compound 0.01 µM): 92%
- viability, T/C (second compound 3.16 µM, first compound 0.0316 µM): 75.5%
- viability, T/C (second compound 3.16 µM, first compound 0.1 µM): 82.5%
- viability, T/C (second compound 3.16 µM, first compound 0.316 µM): 55.8%
- viability, T/C (second compound 3.16 µM, first compound 1 µM): 27.6%
- viability, T/C (second compound 10 µM, first compound 0.00316 µM): 90.1%
- viability, T/C (second compound 10 µM, first compound 0.01 µM): 98%
- viability, T/C (second compound 10 µM, first compound 0.0316 µM): 80.2%
- viability, T/C (second compound 10 µM, first compound 0.1 µM): 75.3%
- viability, T/C (second compound 10 µM, first compound 0.316 µM): 49.6%
- viability, T/C (second compound 10 µM, first compound 1 µM): 25.3%

SMILES: Cc1nc(N2CCC3(CC2)COC(C)C3N)c(CO)nc1Sc1ccnc(N)c1Cl (stereo not given) + CNC(C)C(=O)NC1CN(S(=O)(=O)c2cccc(S(=O)(=O)N3CCC4CCC(C(=O)NC(c5ccccc5)c5ccccc5)N4C(=O)C(NC(=O)C(C)NC)C3)c2)CCC2CCC(C(=O)NC(c3ccccc3)c3ccccc3)N2C1=O
- IC50 [16]: 2.52 µM
- IC50 [17]: 0.893 µM
- IC50 [1]: 0.443 µM
- IC50 [2]: 0.264 µM
- IC50 [3]: 0.196 µM
- viability, T/C (second compound 0.01 µM, first compound 0.00949 µM): 93.8%
- viability, T/C (second compound 0.01 µM, first compound 0.03 µM): 91.4%
- viability, T/C (second compound 0.01 µM, first compound 0.0949 µM): 76.8%
- viability, T/C (second compound 0.01 µM, first compound 0.3 µM): 65.9%
- viability, T/C (second compound 0.01 µM, first compound 0.949 µM): 63.4%
- viability, T/C (second compound 0.01 µM, first compound 3 µM): 46.8%
- viability, T/C (second compound 0.0316 µM, first compound 0.00949 µM): 76%
- viability, T/C (second compound 0.0316 µM, first compound 0.03 µM): 73.8%
- viability, T/C (second compound 0.0316 µM, first compound 0.0949 µM): 67.9%
- viability, T/C (second compound 0.0316 µM, first compound 0.3 µM): 67.5%
- viability, T/C (second compound 0.0316 µM, first compound 0.949 µM): 48.4%
- viability, T/C (second compound 0.0316 µM, first compound 3 µM): 42.2%
- viability, T/C (second compound 0.1 µM, first compound 0.00949 µM): 72.7%
- viability, T/C (second compound 0.1 µM, first compound 0.03 µM): 63%
- viability, T/C (second compound 0.1 µM, first compound 0.0949 µM): 57.6%
- viability, T/C (second compound 0.1 µM, first compound 0.3 µM): 52.5%
- viability, T/C (second compound 0.1 µM, first compound 0.949 µM): 49.4%
- viability, T/C (second compound 0.1 µM, first compound 3 µM): 35.5%
- viability, T/C (second compound 0.316 µM, first compound 0.00949 µM): 57.8%
- viability, T/C (second compound 0.316 µM, first compound 0.03 µM): 55.4%
- viability, T/C (second compound 0.316 µM, first compound 0.0949 µM): 56.3%
- viability, T/C (second compound 0.316 µM, first compound 0.3 µM): 52.1%
- viability, T/C (second compound 0.316 µM, first compound 0.949 µM): 38.6%
- viability, T/C (second compound 0.316 µM, first compound 3 µM): 41.9%
- viability, T/C (second compound 1 µM, first compound 0.00949 µM): 57.6%
- viability, T/C (second compound 1 µM, first compound 0.03 µM): 59.6%
- viability, T/C (second compound 1 µM, first compound 0.0949 µM): 59.6%
- viability, T/C (second compound 1 µM, first compound 0.3 µM): 44.7%
- viability, T/C (second compound 1 µM, first compound 0.949 µM): 30%
- viability, T/C (second compound 1 µM, first compound 3 µM): 33.5%

Further lines, with some results ahead:

- IC50 (compound alone, run of 10/03/2022): > 1 µM
- IC50 (curve of compound): > 1 µM and 0.845 µM
SMILES: CNC(C)C(=O)NC1CN(S(=O)(=O)c2cccc(S(=O)(=O)N3CCC4CCC(C(=O)NC(c5ccccc5)c5ccccc5)N4C(=O)C(NC(=O)C(C)NC)C3)c2)CCC2CCC(C(=O)NC(c3ccccc3)c3ccccc3)N2C1=O (stereo not given)
- viability, T/C (compound 0.00316 µM): 94.8% and 99.9%
- viability, T/C (compound 0.01 µM): 86.8% [middle of 15 runs]
- viability, T/C (compound 0.0316 µM): 76.6% [middle of 15 runs]
- viability, T/C (compound 0.1 µM): 64.3% [middle of 15 runs]
- viability, T/C (compound 0.316 µM): 59.9% [middle of 15 runs]
- viability, T/C (compound 1 µM): 55.5% [middle of 15 runs]

- IC50 (curve of compound): > 0.1 µM
SMILES: Cn1ncnc1[C@H]1c2n[nH]c(=O)c3cc(F)cc(c23)N[C@@H]1c1ccc(F)cc1
- viability, T/C (compound 0.000316 µM): 93.2% and 98% and 104%
- viability, T/C (compound 0.001 µM): 95.6% and 106% and 103%
- viability, T/C (compound 0.00316 µM): 90.9% and 91% and 86.1%
- viability, T/C (compound 0.01 µM): 80.1% and 88.7% and 90.3%
- viability, T/C (compound 0.0316 µM): 91.6% and 90% and 79.6%
- viability, T/C (compound 0.1 µM): 80.9% and 89.7% and 70.5%

- IC50 [16]: > 10 µM
- IC50 [17]: 7.58 µM
- IC50 [1]: 3.97 µM
- IC50 [2]: 8.98 µM
- IC50 [3]: 0.895 µM
SMILES: C#Cc1c(F)ccc2cc(O)cc(-c3ncc4c(N5CC6CCC(C5)N6)nc(OCC56CCCN5CC(F)C6)nc4c3F)c12 (stereo not given) + CNC(C)C(=O)NC1CN(S(=O)(=O)c2cccc(S(=O)(=O)N3CCC4CCC(C(=O)NC(c5ccccc5)c5ccccc5)N4C(=O)C(NC(=O)C(C)NC)C3)c2)CCC2CCC(C(=O)NC(c3ccccc3)c3ccccc3)N2C1=O
- viability, T/C (second compound 0.01 µM, first compound 0.0316 µM): 77.7%
- viability, T/C (second compound 0.01 µM, first compound 0.1 µM): 81.8%
- viability, T/C (second compound 0.01 µM, first compound 0.316 µM): 78.5%
- viability, T/C (second compound 0.01 µM, first compound 1 µM): 73%
- viability, T/C (second compound 0.01 µM, first compound 3.16 µM): 81.7%
- viability, T/C (second compound 0.01 µM, first compound 10 µM): 63.7%
- viability, T/C (second compound 0.0316 µM, first compound 0.0316 µM): 69.6%
- viability, T/C (second compound 0.0316 µM, first compound 0.1 µM): 69.4%
- viability, T/C (second compound 0.0316 µM, first compound 0.316 µM): 71.5%
- viability, T/C (second compound 0.0316 µM, first compound 1 µM): 64.8%
- viability, T/C (second compound 0.0316 µM, first compound 3.16 µM): 61.6%
- viability, T/C (second compound 0.0316 µM, first compound 10 µM): 46.4%
- viability, T/C [4]: 68%
- viability, T/C [5]: 62.4%
- viability, T/C [6]: 65.9%
- viability, T/C [7]: 54.1%
- viability, T/C (second compound 0.1 µM, first compound 3.16 µM): 55.6%
- viability, T/C (second compound 0.1 µM, first compound 10 µM): 40.5%
- viability, T/C [8]: 58.4%
- viability, T/C [9]: 58.7%
- viability, T/C [10]: 55.6%
- viability, T/C [11]: 58.4%
- viability, T/C (second compound 0.316 µM, first compound 3.16 µM): 50.6%
- viability, T/C (second compound 0.316 µM, first compound 10 µM): 48.1%
- viability, T/C [12]: 55.8%
- viability, T/C [13]: 49.5%
- viability, T/C [14]: 56.1%
- viability, T/C [15]: 47.8%
- viability, T/C (second compound 1 µM, first compound 3.16 µM): 46.7%
- viability, T/C (second compound 1 µM, first compound 10 µM): 40.9%
